The target in this experiment is T1, purified human Factor XIa (Homo sapiens, UniProt P03951).
T1 construct: purchased Haematologic Technologies
In words: Factor XIa assay (chromogenic substrate hydrolysis, Ki). Type of experiment: biochemical. As to conditions: purified human Factor XIa 75-200 pM, substrate S-2366, 50 mM HEPES pH 7.4. As to the method: The effectiveness of compounds of the present invention as inhibitors of the coagulation factors XIa, VIIa, IXa, Xa, XIIa, plasma kallikrein or thrombin, can be determined using a relevant purified serine protease, respectively, and an appropriate synthetic substrate. The rate of hydrolysis of the chromogenic or fluorogenic substrate by the relevant serine protease was measured both in the absence and presence of compounds of the present invention. […] A decrease in the rate of absorbance or fluorescence change in the presence of inhibitor is indicative of enzyme inhibition. Such methods are known to one skilled in the art. The results of this assay are expressed as the inhibitory constant, Ki.
Factor XIa determinations were made in 50 mM HEPES buffer at pH 7.4 containing 145 mM NaCl, 5 mM KCl, and 0.1% PEG 8000 (polyethylene glycol; JT Baker or Fisher Scientific). Determinations were made using purified human Factor XIa at a final concentration of 75-200 pM (Haematologic Technologies) and the synthetic substrate S-2366 (pyroGlu-Pro-Arg-pNA; Chromogenix or AnaSpec) at a concentration of 0.0002-0.001 M.
The Michaelis constant, Km, for substrate hydrolysis by each protease, was determined at 25° C. using the method of Lineweaver and Burk. Values of Ki were determined by allowing the protease to react with the substrate in the presence of the inhibitor. Reactions were allowed to go for periods of 20-180 minutes (depending on the protease) and the velocities (rate of absorbance or fluorescence change versus time) were measured. The following relationships were used to calculate Ki values: (vo−vs)/vs=I/(Ki(1+S/Km)) for a competitive inhibitor with one binding site; or vs/vo=A+((B−A)/1+((IC50/(I)^n))); and Ki=IC50/(1+S/Km) for a competitive inhibitor where: […]

Usually Ki stands for the equilibrium dissociation constant of an inhibitor or competing ligand from its target.

T1 sequence (P03951 388-625 limits assumed): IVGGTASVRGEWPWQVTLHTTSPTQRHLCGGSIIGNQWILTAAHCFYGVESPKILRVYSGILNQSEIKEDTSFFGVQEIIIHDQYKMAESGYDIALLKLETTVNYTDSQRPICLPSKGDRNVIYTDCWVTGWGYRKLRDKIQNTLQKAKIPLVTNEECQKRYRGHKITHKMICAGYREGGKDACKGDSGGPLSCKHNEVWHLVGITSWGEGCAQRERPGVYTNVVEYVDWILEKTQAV
T1 sequence (P03951 19-387 partner limits assumed): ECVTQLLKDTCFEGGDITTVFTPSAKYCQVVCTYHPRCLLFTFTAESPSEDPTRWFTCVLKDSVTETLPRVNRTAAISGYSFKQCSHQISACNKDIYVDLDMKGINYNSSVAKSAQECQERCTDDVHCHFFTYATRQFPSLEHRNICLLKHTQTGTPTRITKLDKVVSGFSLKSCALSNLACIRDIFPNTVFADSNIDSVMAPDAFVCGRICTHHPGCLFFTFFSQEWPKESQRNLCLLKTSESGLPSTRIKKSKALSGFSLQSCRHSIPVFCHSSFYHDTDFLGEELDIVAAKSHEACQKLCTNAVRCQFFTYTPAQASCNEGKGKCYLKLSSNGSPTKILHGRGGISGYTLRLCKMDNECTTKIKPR

In turn, `COC(=O)Nc1ccc(-c2cc([C@H](Cc3ccccc3)NC(=O)/C=C/c3cc(Cl)ccc3-n3cnnn3)n[nH]c2=O)cc1F` [Example 61, (S,E)-Methyl 4-(6-(1-(3-(5-chloro-2-(1H-tetrazol-1-yl)phenyl)acrylamido)-2-phenylethyl)-3-oxo-2,3-dihydropyridazin-4-yl)-2-fluorophenylcarbamate] gave a Ki of 1680 nM.
Regarding `COC(=O)Nc1ccc(-c2cc([C@H](Cc3ccccc3)NC(=O)/C=C/c3cc(Cl)ccc3-n3cnnn3)nn(C)c2=O)cc1` [Example 40, (S,E)-Methyl 4-(6-(1-(3-(5-chloro-2-(1H-tetrazol-1-yl)phenyl)acrylamido)-2-phenylethyl)-2-methyl-3-oxo-2,3-dihydropyridazin-4-yl)phenylcarbamate], the Ki was found to be 156 nM.
Turning to `COC(=O)Nc1ccc(-c2cc(C(CC(=O)OC(C)(C)C)NC(=O)/C=C/c3cc(Cl)ccc3-n3cnnn3)c(Cl)nn2)cc1` (single isomer, unassigned) [Example 20, (E)-tert-Butyl 3-(3-(5-chloro-2-(1H-tetrazol-1-yl)phenyl)acrylamido)-3-(3-chloro-6-(4-(methoxycarbonylamino)phenyl)pyridazin-4-yl)propanoate], the Ki is 2.9 nM.
In turn, `O=C(/C=C/c1cc(Cl)ccc1-n1cnnn1)N[C@@H](Cc1ccccc1)c1cc(-c2ccc3[nH]c(=O)cc(O)c3c2)cnn1` [Example 78, (S,E)-3-(5-Chloro-2-(1H-tetrazol-1-yl)phenyl)-N-(1-(5-(4-hydroxy-2-oxo-1,2-dihydroquinolin-6-yl)pyridazin-3-yl)-2-phenylethyl)acrylamide] displayed a Ki of 0.84 nM.
Then `NC1CC1C(=O)Nc1ccc(-c2cnnc([C@H](Cc3ccccc3)NC(=O)/C=C/c3cc(Cl)ccc3-n3cnnn3)c2)cc1` (stereo partly drawn) [Example 80, 2-Amino-N-(4-(6-((S)-1-((E)-3-(5-chloro-2-(1H-tetrazol-1-yl)phenyl)acrylamido)-2-phenylethyl)pyridazin-4-yl)phenyl)cyclopropanecarboxamide], with 3330 nM.
On to `CCN1CCC(C[C@H](NC(=O)/C=C/c2cc(Cl)ccc2-n2cnnn2)c2cc(-c3ccc(NC(=O)OC)cc3)c(Cl)nn2)C1` (stereo partly drawn) [Example 116, Methyl 4-(3-chloro-6-((1S)-1-((E)-3-(5-chloro-2-(1 H-tetrazol-1-yl)phenyl)acrylamido)-2-(1-ethylpyrrolidin-3-yl)ethyl)pyridazin-4-yl)phenylcarbamate], for which the Ki is 327 nM.
`COC(=O)Nc1ccc(-c2cc(C(Cc3ccccc3)NC(=O)/C=C/c3cc(Cl)ccc3-n3cnnn3)c(Cl)nn2)cc1` (single isomer, unassigned) [Example 2, (E)-Methyl 4-(6-chloro-5-(1-(3-(5-chloro-2-(1H-tetrazol-1-yl)phenyl)acrylamido)-2-phenylethyl)pyridazin-3-yl)phenylcarbamate] yielded a Ki of 2 nM.
`COC(=O)Nc1ccc(-c2cc([C@H](CC3CN(C(=O)OC(C)(C)C)C3)NC(=O)/C=C/c3cc(Cl)ccc3-n3cnnn3)n[nH]c2=O)cc1` [Example 136, (S,E)-tert-Butyl 3-(2-(3-(5-chloro-2-(1H-tetrazol-1-yl)phenyl)acrylamido)-2-(5-(4-(methoxycarbonylamino)phenyl)-6-oxo-1,6-dihydropyridazin-3-yl)ethyl)azetidine-1-carboxylate]: affinity was put at a Ki of 503 nM.
In turn, `COC(=O)Nc1ccc(-c2cc([C@H](CC3CCCN(C(=O)C4CC4)C3)NC(=O)/C=C/c3cc(Cl)ccc3-n3cnnn3)nnc2Cl)cc1` (stereo partly drawn) [Example 112, Methyl 4-(3-chloro-6-((1S)-1-((E)-3-(5-chloro-2-(1 H-tetrazol-1-yl)phenyl)acrylamido)-2-(1-(cyclopropanecarbonyl)piperidin-3-yl)ethyl)pyridazin-4-yl)phenylcarbamate] yielded a Ki of 6360 nM.
Next, `COC(=O)Nc1ccc(-c2cc(C(C)NC(=O)/C=C/c3cc(Cl)ccc3-n3cnnn3)c(Cl)nn2)cc1` (racemic) [Example 11, (±)-(E)-Methyl 4-(6-chloro-5-(1-(3-(5-chloro-2-(1H-tetrazol-1-yl)phenyl)acrylamido)ethyl)pyridazin-3-yl)phenylcarbamate]: 52 nM; `COC(=O)Nc1ccc(-c2cc([C@H](Cc3ccncc3)NC(=O)/C=C/c3cc(Cl)ccc3-n3cnnn3)nnc2Cl)cc1` [Example 94, (S,E)-Methyl 4-(3-chloro-6-(1-(3-(5-chloro-2-(1H-tetrazol-1-yl)phenyl)acrylamido)-2-(pyridin-4-yl)ethyl)pyridazin-4-yl)phenylcarbamate]: 27 nM.
Then `COC(=O)Nc1ccc(-c2cc(C(CC(=O)N3CCN(C)CC3)NC(=O)/C=C/c3cc(Cl)ccc3-n3cnnn3)c(Cl)nn2)cc1` (single isomer, unassigned) [Example 27, (E)-Methyl 4-(6-chloro-5-(1-(3-(5-chloro-2-(1H-tetrazol-1-yl)phenyl)acrylamido)-3-(4-methylpiperazin-1-yl)-3-oxopropyl)pyridazin-3-yl)phenylcarbamate], with 4 nM; and `Nc1ccc(-c2cc(C(Cc3ccccc3)NC(=O)/C=C/c3cc(Cl)ccc3-n3cnnn3)c(Cl)nn2)cn1` (racemic) [Example 36, (±)-(E)-N-(1-(6-(6-Aminopyridin-3-yl)-3-chloropyridazin-4-yl)-2-phenylethyl)-3-(5-chloro-2-(1H-tetrazol-1-yl)phenyl)acrylamide], with 20 nM.
Next, `CCn1ccc(C[C@H](NC(=O)/C=C/c2cc(Cl)ccc2-n2cnnn2)c2cc(-c3ccc(NC(=O)OC)cc3)c(Cl)nn2)n1` [Example 71, (S,E)-Methyl 4-(3-chloro-6-(1-(3-(5-chloro-2-(1H-tetrazol-1-yl)phenyl)acrylamido)-2-(1-ethyl-1H-pyrazol-3-yl)ethyl)pyridazin-4-yl)phenylcarbamate]: 9.4 nM; `COC(=O)Nc1ccc(-c2cc([C@H](Cc3cc4n(n3)CCCO4)NC(=O)/C=C/c3cc(Cl)ccc3-n3cnnn3)nnc2Cl)cc1` [Example 97, (S,E)-Methyl 4-(3-chloro-6-(1-(3-(5-chloro-2-(1H-tetrazol-1-yl)phenyl)acrylamido)-2-(6,7-dihydro-5H-pyrazolo[5,1-b][1,3]oxazin-2-yl)ethyl)pyridazin-4-yl)phenylcarbamate]: 17 nM; `COC(=O)Nc1ccc(-c2cc([C@H](CC3CCCN(C(=O)C(C)C)C3)NC(=O)/C=C/c3cc(Cl)ccc3-n3cnnn3)nnc2Cl)cc1` (single isomer, unassigned) [Example 118]: 55 nM.
Molecule `COC(=O)Nc1ccc(-c2cc([C@H](Cc3cscn3)NC(=O)/C=C/c3cc(Cl)ccc3-n3cnnn3)nnc2Cl)cc1` [Example 123, (S,E)-Methyl 4-(3-chloro-6-(1-(3-(5-chloro-2-(1H-tetrazol-1-yl)phenyl)acrylamido)-2-(thiazol-4-yl)ethyl)pyridazin-4-yl)phenylcarbamate] registered a Ki of 57 nM.
Then `COC(=O)Nc1ccc(-c2cc(C(Cc3ccccc3)NC(=O)/C=C/c3cc(Cl)ccc3-n3cnnn3)c(Cl)nn2)cc1` (single isomer, unassigned) [Example 3, (E)-Methyl 4-(6-chloro-5-(1-(3-(5-chloro-2-(1H-tetrazol-1-yl)phenyl)acrylamido)-2-phenylethyl)pyridazin-3-yl)phenylcarbamate], with 630 nM.
`O=C(/C=C/c1cc(Cl)ccc1-n1cnnn1)N[C@@H](Cc1ccccc1)c1cc(-c2ccc(NC(=O)OC3CNC3)cc2)cnn1` [Example 89, (S,E)-Azetidin-3-yl 4-(6-(1-(3-(5-chloro-2-(1H-tetrazol-1-yl)phenyl)acrylamido)-2-phenylethyl)pyridazin-4-yl)phenylcarbamate] displayed a Ki of 141 nM.
`COC(=O)Nc1ccc(-c2cc([C@H](CC3CCCN(S(C)(=O)=O)C3)NC(=O)/C=C/c3cc(Cl)ccc3-n3cnnn3)n[nH]c2=O)cc1` (stereo partly drawn) [Example 154, Methyl 4-(6-((1S)-1-((E)-3-(5-chloro-2-(1H-tetrazol-1-yl)phenyl)acrylamido)-2-(1-(methylsulfonyl)piperidin-3-yl)ethyl)-3-oxo-2,3-dihydropyridazin-4-yl)phenylcarbamate]: the Ki turned out to be 176 nM.
`COC(=O)Nc1ccc(-c2cc([C@H](CC(=O)OC(C)(C)C)NC(=O)/C=C/c3cc(Cl)ccc3-n3cnnn3)n[nH]c2=O)cc1` [Example 146, (S,E)-tert-Butyl 3-(3-(5-chloro-2-(1H-tetrazol-1-yl)phenyl)acrylamido)-3-(5-(4-(methoxycarbonylamino)phenyl)-6-oxo-1,6-dihydropyridazin-3-yl)propanoate] yielded a Ki of 5.5 nM.
Turning to `COC(=O)Nc1ccc(-c2cc([C@H](CCSC)NC(=O)/C=C/c3cc(Cl)ccc3-n3cnnn3)nnc2Cl)cc1` [Example 90, (S,E)-Methyl 4-(3-chloro-6-(1-(3-(5-chloro-2-(1H-tetrazol-1-yl)phenyl)acrylamido)-3-(methylthio)propyl)pyridazin-4-yl)phenylcarbamate], the affinity, expressed as Ki, was 67 nM.
Molecule `COC(=O)Nc1ccc(-c2cc([C@H](CC3CCCNC3)NC(=O)/C=C/c3cc(Cl)ccc3-n3cnnn3)nnc2Cl)cc1` (single isomer, unassigned) [Example 99] displayed a Ki of 746 nM.

Source of the values: patent publication US8324199B2, “Pyridazine derivatives as factor xia inhibitors” (Bristol-Myers Squibb Company, priority 2008, dated 2012).
